1 compound from US9018381B2, “Chemical compounds” (AstraZeneca AB, priority 2010, dated 2015) can be followed below.

Usually IC50 stands for the midpoint of a concentration-inhibition curve. The low end stands for higher potency, the high end for lower potency.

Assay [1] deals with Bcl-XL (Homo sapiens (Human), UniProt Q07817). Kind of assay: Bcl-XL FP assay (fluorescence polarization competitive binding). The following applies: C-terminal 6×HIS tagged Bcl-XL (aa 1-209), FITC-Bim BH-3 peptide tracer. The text has this:
(§1) Bcl-xL and Bcl-2 FP binding affinity of compound(s) of Formulae (I), (I-a), (I-b), (I-c), (I-d) and/or (I-e) may be determined using a variety of known methods. One such assay is a sensitive and quantitative in vitro binding assay using fluorescence polarization (“FP”) described by Wang, J.-L.; Zhang, Z-J.; Choksi, S.; Sjam. S.; Lu, Z.; Croce, C. M.; Alnemri, E. S.; Komgold, R.; Huang, Z. Cell permeable Bcl-2 binding peptides: a chemical approach to apoptosis induction in tumor cells. Cancer Res. 2000, 60, 1498-1502).
(§2) Additionally, the binding affinity of compound(s) of Formulae (I), (I-a), (I-b), (I-c), (I-d) and/or (I-e) to Bcl-2 protein in vitro was determined by a competitive binding assay based on fluorescence polarization. For example, fluorescence polarization (“FP”) assays may be developed using a c-terminal 6×HIS tagged Bcl-2 (aa 1-204) and a C-terminal 6×HIS tagged Bcl-XL (aa 1-209). […] Dilutions of either Bcl-2 (1.3 nM) or Bcl-XL (0.8 nM) may be added to serial dilutions of antagonist and incubated for one hour prior to the addition of 2 nM of fluorescent peptide tracer (Anaspec, Fremont, Calif.) in the assay buffer. Final assay buffer conditions may be 20 mM HEPES, pH 7.5, 1 mM DTT, 0.005% Tween-20 and 50 mM NaCl. Samples may be read after 20-minute incubation. Fluorescence polarization values may be plotted as a function of the antagonist concentration.
(Fluorescence polarisation rises when a labelled molecule tumbles more slowly, as on binding a larger partner.)

For assay [2], the target named is Bcl-2 (Homo sapiens (Human), UniProt P10415). Briefly: Bcl-2 FP assay (fluorescence polarization competitive binding). The settings on record: c-terminal 6×HIS tagged Bcl-2 (aa 1-204), FITC-Bim BH-3 peptide tracer.
Bcl-2, sequence (P10415 1-204): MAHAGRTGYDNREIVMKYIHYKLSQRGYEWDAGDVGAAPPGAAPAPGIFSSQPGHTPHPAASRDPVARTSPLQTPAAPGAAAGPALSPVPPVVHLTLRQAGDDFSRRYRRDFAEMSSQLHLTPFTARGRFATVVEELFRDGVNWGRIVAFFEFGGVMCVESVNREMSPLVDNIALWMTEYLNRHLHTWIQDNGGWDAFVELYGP
Excerpt: as §1, §2

Bcl-XL, sequence (Q07817 1-209): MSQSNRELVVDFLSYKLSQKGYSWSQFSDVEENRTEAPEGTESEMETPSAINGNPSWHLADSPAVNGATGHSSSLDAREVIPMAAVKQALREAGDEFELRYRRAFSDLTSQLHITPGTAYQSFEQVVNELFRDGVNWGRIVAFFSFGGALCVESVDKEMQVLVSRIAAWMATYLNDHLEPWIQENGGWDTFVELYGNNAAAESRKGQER

As to `O=C(NS(=O)(=O)c1ccc(N[C@H](CCN2CCN(C[C@H](O)CF)CC2)CSc2ccccc2)c(S(=O)(=O)C(F)(F)F)c1)c1ccc(N2CCC([C@@H](O)c3ccccc3-c3ccc(Cl)cc3)CC2)cc1` (single isomer, unassigned) [Example 6], the IC50 stood at 2 nM in assay [1] and 1 nM in assay [2].
